Earlier results on one compound are cited in patent US20250186477A1, “COMPOSITIONS COMPRISING FLUDARABINE PHOSPHATE AND METHODS OF MAKING AND USING SAME TO TREAT CANCER” (Areva Pharmaceuticals Limited, priority 2023, published 2025).

SMILES strings stand for the structures.

The conditions of this series: refractory chronic lymphocytic leukemia patients receiving 22-40 mg/m^2 or 15-25 mg/m^2 fludarabine daily.

Take `Nc1nc(F)nc2c1ncn2[C@@H]1O[C@H](CO)[C@@H](O)[C@@H]1O` [fludarabine, (2R,3S,4S,5R)-2-(6-amino-2-fluoropurin-9-yl)-5-(hydroxymethyl)oxolane-3,4-diol]: the pneumonia result is “high rates of pneumonia”.
